Assay results published in US4543256A, “(-)-10,1L Methylenedioxy-N-N-propylnoraporphine and methods employing it for inhibiting the effects of epileptic seizures and for prevention and treatment of duodenal ulcers” (Northeastern University, priority 1982, dated 1985).
“Also recorded” adds a separate entry of the source. Counter-ions that a name gives are not always drawn.

Columns and labels:
[1] = system: duodenal ulcers; assay: Cysteamine-induced duodenal ulcer in the rat; conditions: for Duodenal Ulcer Intensity (Scale: 0-3): control 1.8; for Duodenal Ulcer Incidence (Positive/Total): control 10/12
[2] = system: rats; assay: Stereotyped behavior of rats (rating scale; score, onset and duration); assay type: in vivo, rat (male Sprague-Dawley); conditions: for Duration of Effect (stereotypy): complete when scores ≤3; for Stereotypy Score for 30 min after MDO--NPA: maximum possible 18.0, N=5
Procedure: (§1) Male Sprague-Dawley (Charles River Labs.) rats (initially 175-200 g) were housed four per cage, with free access to food and water, under controlled lighting (on 7:00 a.m. to 7:00 p.m.), constant temperature 21°-23° C. and controlled humidity (40-50%). Aporphines were administered, as described below, freshly dissolved in 1 mM citric acid mixed with 0.9% (w/v) saline (1:4, vols.); this solvent was also used as a vehicle ("placebo") control. Haloperidol was given in the same medium; 2-diethyl aminoethyl-2,2 diphenylvalerate HCl (SKF-525A) was given in saline.
Stereotyped behavior was evaluated by a trained observer according to a rating scale method reported previously (Campbell and Baldessarini, 1981a). Briefly, the ratings were as follows: 0, no stereotypy, normal locomotion; 1, discontinuous sniffing, reduced locomotion; 2, continuous sniffing, only periodic exploration; 3, continuous sniffing, mouth movements, infrequent, exploratory activity, Ratings were made each 10 min. by observation for 30 sec, typically for 60 min. (maximum score=18.0/hour).
(§2) In all experiments except those which evaluated the time-course of drug effects, rats were given an injection of vehicle and then allowed to rest for 15 min. to adapt to nonspecific arousal effects, prior to a second injection of test agent (or placebo) and immediate behavioral testing. Behavioral data were evaluated by Student's t-test and are always expressed as mean ±SEM.
Data are mean values ±SEM for N=6 rats per group given doses of each aporphine (1mg/kg/, or approximately 3 umole/kg) by orogastric intubation (P.O.), or subcutaneous (S.C.) or intraperitoneal (I.P.) injection. Stereotypy was rated for one hour as described in Methods and duration is defined as complete when scores diminished to ≤3 (out of a maximum possible score of 18).
Data are mean values ±SEM (N=4 to 8 rats per condition). […] N.D. indicates "not determined." (*) Indicates a significant difference by t-test between control and oxidase inhibitor-pretreated rats (p<0.01).
Stereotypy was rated for 60 min as described in Methods. Data are means SEM (stereotypy scores, when 18=maximum in 1 hour) for N=6 rats per group; (*) indicates p<0.0001 by t test.
Data are mean values ±SEM (N=3 to 6 rats per condition) for effects of seven aporphine compounds (R=substituents, keyed to the structure above). Full chemical names for all compounds are provided in Methods. […] Data are provided for a dose of 10 mg/kg (i.p.), although doses of 1 and 5 mg/kg were also tested.

[3] = system: Adenylate cyclase; assay: Adenylate cyclase stimulation (cAMP) in rat striatal homogenates; assay type: biochemical; conditions: 100 μM; control (no addition) 2.38 ± 0.14; N=4
From the text: of cAMP in rat striatal homogenates; inhibition of binding of

[4] = system: rats; assay: Catalepsy (maintenance of abnormal posture on bar); assay type: in vivo, rat (male Sprague-Dawley); conditions: i.p.
Procedure: as §1
Catalepsy was assessed as described in detail elsewhere (Campbell and Baldessarini, 1981a; 1981b, Life Sciences 29 1341-46). Briefly, rats were evaluated every 10 min. by timing (stopwatch) their maintenance of an abnormal posture with forelimbs on a 1 cm-diameter steel bar parallel to, and 8 cm above the bench, so that the rat rested on its hindquarters only; 60 sec. was taken as a maximum and nearly all normal untreated rats remained on the bar for less than 5 sec. […]
In all experiments except those which evaluated the time-course of drug effects, rats were given an injection of vehicle and then allowed to rest for 15 min. to adapt to nonspecific arousal effects, prior to a second injection of test agent (or placebo) and immediate behavioral testing. […]

[5] = system: rats; assay: Locomotor (general motor) activity, electronic activity monitor; assay type: in vivo, rat (male Sprague-Dawley)
Procedure: as §1
Locomotor activity was evaluated by use of a printing electronic activity monitor (EAM, Stoelting Co., Chicago, IL) within a sound-attenuated chamber, typically for 60 min., as described previously (Stewart, Campbell, Sperk and Baldessarini, 1979, Psychopharmacology 60 281-289; Campbell and Baldessarini, 1981a, Psychopharmacology 73:219-222.
as §2
Data are mean values ±SEM (N=4 to 8 rats per condition). Animals were pretreated with SKF-525A (40 mg/kg, i.p.) or its vehicle 30 min before MDO-NPA (in the doses noted, from 0 to 3 mg/kg, i.p.). Activity was then monitored electronically for an hour after the low doses of MDO-NPA (data in counts/hour), or rated for stereotypy every 10 min for an hour after higher doses. N.D. indicates "not determined." (*) Indicates a significant difference by t-test between control and oxidase inhibitor-pretreated rats (p<0.01).
Data are mean values ±SEM (N=3 to 6 rats per condition) for effects of seven aporphine compounds (R=substituents, keyed to the structure above). Full chemical names for all compounds are provided in Methods. Ratings are expressed as percent of the maximum possible score (100%)=18.0) of stereotypy (Placebo-injected controls yielded scores of 4.4±2.5%); and as the percent of control locomotor activity (100%=430±86 counts/hr). Data are provided for a dose of 10 mg/kg (i.p.), although doses of 1 and 5 mg/kg were also tested.

[6] = 50 μg/100g s.c. once daily seven days
[7] = 100 μg/100g s.c. once daily seven days

CCCN1CCc2cccc3c2[C@H]1Cc1ccc2c(c1-3)OCO2 [MDO-NPA, (-) 10, 11-methylenedioxy-N-n-propylnoraporphine-HCl]
Duodenal Ulcer Intensity (Scale: 0-3) [1, 6]: 0.8
Duodenal Ulcer Incidence (Positive/Total) [1, 6]: 4/6
Duodenal Ulcer Intensity (Scale: 0-3) [1, 7]: 0.5
Duodenal Ulcer Incidence (Positive/Total) [1, 7]: 3/6
effect on incidence and intensity of duodenal ulcers and gastric acid output, oral ([1]; administered orally): reduces the incidence and intensity of duodenal ulcers and the gastric acid output
dose effective in preventing ulcers ([1]; once daily for seven days before cysteamine-hydrochloride): 50 micrograms per hundred grams of body weight
effect on cysteamine-induced duodenal ulcers ([1]; rats given cysteamine): significant prevention of experimental duodenal ulcers; also recorded: virtually abolished
effect of a single high dose on duodenal ulcers ([1]; single high dose): active
Stereotypy Score ([2]; 1 mg/kg I.P., rated one hour, maximum 18, N=6, mean ±SEM): 16.5 ± 0.8
Duration of Effect (stereotypy) ([2]; 1 mg/kg I.P.): 116 ± 12 min
Duration of Effect (stereotypy) ([2]; 1 mg/kg P.O.): 112 ± 20 min
Stereotypy Score ([2]; 1 mg/kg S.C., rated one hour, maximum 18, N=6, mean ±SEM): 17.5 ± 0.4
Duration of Effect (stereotypy) ([2]; 1 mg/kg S.C.): 106 ± 10 min
Stereotypy Score for 30 min after MDO--NPA ([2]; 1 mg/kg i.p.): 16.5 ± 1.2
Stereotypy Score for 30 min after MDO--NPA ([2]; 1 mg/kg p.o.): 15.5 ± 1.6
Stereotypy Score ([2]; MDO-NPA 0.3 mg/kg, haloperidol 0, 60 min, maximum 18, N=6): 11.6 ± 0.8
Stereotypy Score ([2]; MDO-NPA 0.3 mg/kg, haloperidol 0.3 mg/kg 30 min before, p<0.0001): 0.3 ± 0.2
Stereotypy Score ([2]; MDO-NPA 0.3 mg/kg, haloperidol 1.0 mg/kg 30 min before, p<0.0001): 0.3 ± 0.2
Stereotypy Score ([2]; MDO-NPA 1.0 mg/kg, haloperidol 0, 60 min, maximum 18, N=6): 16.6 ± 0.4
Stereotypy Score ([2]; MDO-NPA 1.0 mg/kg, haloperidol 0.3 mg/kg 30 min before, p<0.0001): 0.5 ± 0.2
Stereotypy Score ([2]; MDO-NPA 1.0 mg/kg, haloperidol 1.0 mg/kg 30 min before, p<0.0001): 1.2 ± 0.4
Stereotypy ([2]; SKF-525A 40 mg/kg i.p. before MDO-NPA 0.30 mg/kg i.p., p<0.01 vs control): 1.7 ± 0.6
Stereotypy ([2]; SKF-525A 40 mg/kg i.p. before MDO-NPA 1.0 mg/kg i.p., p<0.01 vs control): 0.8 ± 0.2
Stereotypy ([2]; SKF-525A 40 mg/kg i.p. before MDO-NPA 3.0 mg/kg i.p., p<0.01 vs control): 0.8 ± 0.5
Stereotypy ([2]; control (vehicle pretreated), MDO-NPA 0.30 mg/kg i.p., score over one hour): 12.8 ± 0.6
Stereotypy ([2]; control (vehicle pretreated), MDO-NPA 1.0 mg/kg i.p., score over one hour): 16.5 ± 0.1
Stereotypy ([2]; control (vehicle pretreated), MDO-NPA 3.0 mg/kg i.p., score over one hour): 16.2 ± 0.9
dependence of duration of action on dose ([2]; i.p.): consistent increase in duration of action with increased dose
duration of stereotyped behavioral effects vs other agents ([2]; i.p., for MDO-NPA at doses above 1 μmole/kg): exceeded that of NPA
Adenylate cyclase stimulation (cAMP) [3]: 2.92 ± 0.32 pmol/assay
dose of maximum effect, catalepsy [4]: 0.3 µmol/kg
catalepsy ([4]; doses similar to those which inhibited general activity): strong catalepsy
minimal effective dose ([5]; Rattus norvegicus, ip, read-out: dose producing increases in general motor activity): > 2 µmol/kg
Activity ([5]; SKF-525A 40 mg/kg i.p. 30 min before MDO-NPA 0.05 mg/kg i.p., p<0.01 vs control): 425 ± 40 counts/hour
Activity ([5]; SKF-525A 40 mg/kg i.p. 30 min before MDO-NPA 0.10 mg/kg i.p., p<0.01 vs control): 415 ± 29 counts/hour
Activity ([5]; SKF-525A 40 mg/kg i.p. 30 min before MDO-NPA 0.20 mg/kg i.p., p<0.01 vs control): 410 ± 32 counts/hour
Activity ([5]; SKF-525A 40 mg/kg i.p. 30 min before MDO-NPA 0.30 mg/kg i.p.): 440 ± 38 counts/hour
Activity ([5]; control (vehicle pretreated), MDO-NPA 0.05 mg/kg i.p.): 190 ± 20 counts/hour
Activity ([5]; control (vehicle pretreated), MDO-NPA 0.10 mg/kg i.p.): 130 ± 30 counts/hour
Activity ([5]; control (vehicle pretreated), MDO-NPA 0.20 mg/kg i.p.): 260 ± 33 counts/hour
Activity ([5]; control (vehicle pretreated), MDO-NPA 0.30 mg/kg i.p.): 435 ± 29 counts/hour
dose of maximum effect, inhibition of locomotor activity ([5]; i.p., about 0.1 mg/kg): 0.3 µmol/kg
